Data from patent US11458138B2 (Novartis AG, priority 2017, dated 2022).

Experiments:
[1] = tested on: Phospho-YAP (SER127) in HaCaT cells; test: pYAP HTRF Assay (HaCaT Cells); type: cell-based, human; details: Homo sapiens, 2 hours
Summary of the method: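 HaCaT cells at 5500 cells/well were cultured 48 hours at 37° C, then treated with compound for 2 hours. Phospho-YAP (Ser127) was detected by HTRF after an overnight (20 hrs) room-temperature incubation, read as the 665 nm/620 nm ratio.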

LATS1 = LATS1 (Homo sapiens (Human), UniProt O95835); test: LATS1 biochemical assay (Table 1A, Compound Examples 1-290; method in the earlier part)
Chain of LATS1 (O95835 whole entry, looked up): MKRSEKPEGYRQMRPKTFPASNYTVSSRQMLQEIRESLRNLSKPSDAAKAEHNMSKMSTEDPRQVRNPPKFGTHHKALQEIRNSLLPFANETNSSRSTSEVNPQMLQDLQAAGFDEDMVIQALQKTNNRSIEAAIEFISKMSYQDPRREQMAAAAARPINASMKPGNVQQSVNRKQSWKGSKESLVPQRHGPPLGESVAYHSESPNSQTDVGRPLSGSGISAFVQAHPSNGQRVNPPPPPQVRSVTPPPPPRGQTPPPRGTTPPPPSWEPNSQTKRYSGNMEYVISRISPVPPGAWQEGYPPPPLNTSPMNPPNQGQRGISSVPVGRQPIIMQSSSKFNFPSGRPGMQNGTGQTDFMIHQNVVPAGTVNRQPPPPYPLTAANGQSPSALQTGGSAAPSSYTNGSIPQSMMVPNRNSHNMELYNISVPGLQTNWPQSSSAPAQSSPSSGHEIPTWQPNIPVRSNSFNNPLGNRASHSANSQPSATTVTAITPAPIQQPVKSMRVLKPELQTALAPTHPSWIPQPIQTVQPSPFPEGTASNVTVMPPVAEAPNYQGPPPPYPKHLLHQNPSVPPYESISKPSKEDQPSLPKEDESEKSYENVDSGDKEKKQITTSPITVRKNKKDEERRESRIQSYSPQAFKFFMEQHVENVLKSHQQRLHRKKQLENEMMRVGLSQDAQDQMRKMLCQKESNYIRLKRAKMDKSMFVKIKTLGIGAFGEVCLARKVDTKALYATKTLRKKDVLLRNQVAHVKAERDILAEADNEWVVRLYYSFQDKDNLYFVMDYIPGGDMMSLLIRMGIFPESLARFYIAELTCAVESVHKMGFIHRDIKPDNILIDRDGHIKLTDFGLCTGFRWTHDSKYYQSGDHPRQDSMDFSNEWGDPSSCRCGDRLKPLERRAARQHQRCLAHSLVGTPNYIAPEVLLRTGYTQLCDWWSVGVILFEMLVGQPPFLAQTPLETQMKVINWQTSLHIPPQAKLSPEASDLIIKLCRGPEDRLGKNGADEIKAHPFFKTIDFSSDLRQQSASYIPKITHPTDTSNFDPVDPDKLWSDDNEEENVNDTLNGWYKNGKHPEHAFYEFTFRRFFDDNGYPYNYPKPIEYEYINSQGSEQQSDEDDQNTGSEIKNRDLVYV
Chain of LATS1 (Q7L9L4 whole entry partner, looked up): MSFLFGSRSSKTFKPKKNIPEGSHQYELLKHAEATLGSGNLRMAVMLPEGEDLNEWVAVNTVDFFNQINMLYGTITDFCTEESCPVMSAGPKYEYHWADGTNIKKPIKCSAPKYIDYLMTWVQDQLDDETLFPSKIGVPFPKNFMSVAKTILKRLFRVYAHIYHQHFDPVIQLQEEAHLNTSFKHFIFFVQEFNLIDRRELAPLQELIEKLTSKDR

[2] = tested on: Phospho-YAP (Ser127) in JHH-5 cells; test: pYAP HTRF Assay (JHH-5 cells); type: cell-based; details: 2 hours
Summary of the method: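 JHH-5 cells (24000/well) cultured 24 h at 37 °C in William's E with 10% FBS, then exposed to compounds for 2 h at 37 °C. After lysis, pYAP d2/cryptate antibodies incubated 18 h at room temperature; HTRF ratio 665/620 nm ×10000.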

[3] = tested on: YAP nuclear translocation in HaCaT cells; test: YAP Translocation Assay (HaCaT Cells); type: cell-based, human; details: Homo sapiens, 24 hours
Summary of the method: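 HaCaT cells (20,000/well) in DMEM + 10% FBS were plated overnight at 37° C, then exposed to compound for 24 h at 37° C. Cells were fixed with PFA, permeabilized with 0.1% Triton/1.5% BSA and imaged by high-content imaging.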

[4] = target: Human LATS2 kinase domain protein (Homo sapiens (Human), UniProt Q9NRM7); test: LATS2 Biochemical Caliper Assay (Compound Examples 1-290); details: 400 micromolar ATP
Chain of Human LATS2 kinase domain protein (Q9NRM7 553-1088): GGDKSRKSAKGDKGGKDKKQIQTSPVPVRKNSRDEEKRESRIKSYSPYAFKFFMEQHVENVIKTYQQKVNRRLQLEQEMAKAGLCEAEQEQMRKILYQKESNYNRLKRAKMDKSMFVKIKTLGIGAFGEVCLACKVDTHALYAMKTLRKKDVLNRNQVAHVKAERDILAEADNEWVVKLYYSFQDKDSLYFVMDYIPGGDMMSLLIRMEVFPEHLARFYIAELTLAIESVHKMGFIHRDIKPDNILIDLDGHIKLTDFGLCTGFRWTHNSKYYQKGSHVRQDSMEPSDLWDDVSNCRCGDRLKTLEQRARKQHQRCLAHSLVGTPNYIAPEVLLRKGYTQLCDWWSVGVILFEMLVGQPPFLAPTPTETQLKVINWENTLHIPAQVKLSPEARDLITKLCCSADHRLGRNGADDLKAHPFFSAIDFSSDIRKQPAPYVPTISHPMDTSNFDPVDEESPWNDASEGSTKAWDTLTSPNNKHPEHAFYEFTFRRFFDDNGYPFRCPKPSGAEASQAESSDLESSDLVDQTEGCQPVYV
Chain of Human LATS2 kinase domain protein (Q7L9L4 whole entry partner, the tested form may be a part): as the sequence (Q7L9L4 whole entry partner, looked up) above
Description: Human LATS2 kinase domain protein was purchased from Carnabio (catalogue number 01-124), which harbors the catalytic domain of amino acids 553-1088, and was co-purified with human His-tagged MOBKL1A (NP_775-739). 5 microlitre of enzyme buffer, 100 nL of compounds and 5 microlitre of localising aid buffer were added into 384-well plates. […] The plates were incubated at 25° C. for 3 hours. 40 microlitre of stop buffer with 25 mM EDTA (NanoSyn) was added to each well to terminate the reaction. Localising aids and products were separated electrophoretically using the microfluidic-based Caliper Labchip 3000 Drug Discovery System (Caliper Life Sciences). Plates were read using blue laser excitation and green fluorescence detection and quantified by fluorescence intensity.

[5] = target: Human LATS1 kinase domain protein (Homo sapiens (Human), UniProt O95835); test: LATS1 Biochemical Caliper Assay (Compound Examples 291-335); details: Caliper EZ Reader
Chain of Human LATS1 kinase domain protein (O95835 whole entry, looked up, the tested form may be a part): as the sequence (O95835 whole entry, looked up) above
Chain of Human LATS1 kinase domain protein (Q7L9L4 whole entry partner, looked up, the tested form may be a part): as the sequence (Q7L9L4 whole entry partner, looked up) above
Description: The LATS1 biochemical Caliper assay was performed as following.
Human LATS1 kinase domain protein was purchased from Carnabio (catalogue number 01-123; lot 15CBS-0098D). Human LATS1, catalytic domain [589-1130(end) amino acids of accession number NP_004681.1] was co-expressed as N-terminal GST-fusion protein (90 kDa) with human His-tagged MOBKL1A [1-216(end) amino acids of accession number NP_775739.1] using baculovirus expression system. GST-LATS1 was purified by using glutathione sepharose chromatography. The substrate (Fluo-SGKtide; Peptide for LATS1; lot BS-41067) has the following sequence: 5-Fluo-Nva-[…]-amide (SEQ ID NO: 27) x TFA and was purchased from Biosyntan.
The reaction is performed in reaction buffer containing 50 mM Hepes pH 7,5; 0.02% Tween20; 0.02% BSA; 1 mM DTT; 10 uM Na3VO4 and 10 mM beta-Glycerolphosphat and fresh added 1 mM MgCl2 and qsp H2O.
The substrate solution (2× conc.) in Reaction Buffer contains 300 μM ATP and 4 μM Fluo-SGKtide.
The kinase solution (2× conc.) in Reaction Buffer contains 20 nM LATS1 kinase. 4.5 μL of 2× conc. Kinase solution, 50 nL of 1.8 mM compounds and 4.5 μL of substrate solution were added into 384-well plates black small volume from Greiner and incubated at 32° C. for 1 hour. 15 μL of stop buffer containing 100 mM Hepes pH 7,5; 5% DMSO; 0.1% Coating reagent; 10 mM EDTA and 0.02% Brij35 and qsp H2O to each well to terminate the reaction.
Substrates and products were electrophoretically separated using the microfluidic-based Caliper EZ Reader System (Caliper Life Sciences) using a 12 sipper chip (cat 760404). The separation takes place in Coating Buffer (idem Stop buffer) and containing 0.1% Coating reagent CR3 and 0.5% coating reagent CR8 (Perkin Elmer).
Plates were read using a LED with an excitation at 488 nm and a detection at 520 nm to 5 quantify the fluorescence intensity.

[6] = tested on: human limbal stem cells (LSCs); test: Human limbal stem cell population expansion: percentage of p63alpha-positive cells; type: cell-based; details: 10 micromolar, XVIVO15 medium
Description: (§1) Cells were cultured at 37° C. in 5% CO2.
(§2) For each compound, two sets of cultures were generated. A first set of cultures was fixed in 4% PFA for 20 minutes at room temperature after cells isolated from the cornea had attached to the cell culture dish (typically 24 h after cell plating). A second set of cultures was fixed in 4% PFA for 20 minutes at room temperature after being cultured for two passages. Cells were passaged when they reached 90-100% confluence.
In order to observe that the expanded cell population expressed p63alpha, this was measured by immunohistochemistry as follows. The fixed cell cultures were permeabilized and blocked in a blocking solution of 0.3% Triton X-100 (Sigma-Aldrich) and 3% donkey serum in PBS for 30 minutes. Cells were then labeled with primary antibody in the blocking solution for 12 hours at 4° C. Primary antibody used was p63alpha from Cell Signalling. Samples were washed in PBS three times and donkey-raised secondary antibody Alexa Fluor 488 (Molecular Probes) at 1:500 dilution were applied for 30 minutes at room temperature. Cell nuclei were then labeled in a solution of 0.5 micromolar of Sytox Orange (ThermoFisher) in PBS for 5 minutes at room temperature.
To evaluate the percentage of p63alpha-positive cells, the number of cells labeled by the anti-p63alpha antibody was counted and the total number of cells was determined by counting the number of nuclei stained by Sytox Orange. The proportion of p63alpha-positive cells was then determined by calculating the percentage of Sytox-orange-positive nuclei that also expressed p63alpha.

[7] = tested on: human corneal endothelial cells (CECs); test: Human corneal endothelial cell population expansion: endothelial cell density in vitro; type: cell-based; details: 10 micromolar compound, X-VIVO15 medium, 10 days
Description: as §1
(§3) For each compound, two sets of cultures were generated. A first set of cultures was fixed in 4% PFA for 20 minutes at room temperature after cells isolated from the cornea had attached to the cell culture dish (typically 24 h after cell plating). A second set of cultures was fixed in 4% PFA for 20 minutes at room temperature 10 days after the first one.
(§4) To measure cell density in all fixed cultures, the number of nuclei stained with Sytox Orange (ThermoFisher) were counted per surface area as follows: fixed cell cultures fixed were permeabilized in a solution of 0.3% Triton X-100 (Sigma-Aldrich). Cells were then labeled in a solution of 0.5 micromolar of Sytox Orange in PBS for 5 minutes at room temperature. Nuclei were counted under a Zeiss epifluorescence microscope. The expansion factor was then determined by calculating the ratio of the expanded population of cells to population of seeded cells.

[8] = tested on: human limbal stem cells (LSCs); test: Human limbal stem cell population expansion: expansion factor; type: cell-based; details: 10 micromolar, XVIVO15 medium, two passages, ratio of expanded to seeded cells
Description: as §1, §2
To evaluate cell expansion ratios, nuclei were counted using a Zeiss LSM 880 confocal microscope. The expansion factor was then determined by calculating the ratio of the expanded population of cells to population of seeded cells.

[9] = tested on: human corneal endothelial cells (CECs); test: Human corneal endothelial cell population expansion: fold cell expansion; type: cell-based; details: 10 micromolar compound, X-VIVO15 medium, 10 days, ratio of expanded to seeded cells
Description: as §1, §3, §4

| SMILES | IC50 [1] | IC50 (LATS1) | IC50 [2] | EC50 [3] | IC50 [5] | also measured |
| --- | --- | --- | --- | --- | --- | --- |
| CC(C)(C)Nc1nc(-c2ccncc2)nc2cnccc12 [Example 59, N-tert-butyl-2-(pyridin-4-yl)pyrido[3,4-d]pyrimidin-4-amine] | 0.019 µM | 0.001 µM | 1.1 µM | 0.341 µM |  | IC50 [4]: 0.004 µM |
| CC(C)(COCCO)Nc1nc(-c2ccncc2)nc2cnccc12 [Example 11, 2-(2-methyl-2-{[2-(pyridin-4-yl)pyrido[3,4-d]pyrimidin-4-yl]amino}propoxy)ethan-1-ol] | 0.646 µM | 0.003 µM |  | 1.43 µM |  | IC50 [4]: 0.012 µM |
| Cn1nccc1-c1nc(NC2(C)CCC2)c2ccncc2n1 [Example 186, 2-(1-methyl-1H-pyrazol-5-yl)-N-(1-methylcyclobutyl)pyrido[3,4-d]pyrimidin-4-amine] |  | 0.009 µM |  | > 20 µM |  | IC50 [4]: 0.05 µM |
| CC1(Nc2cc(-c3ccncc3)nc3cnccc23)CCC1 [Example 300, N-(1-methylcyclobutyl)-2-(pyridin-4-yl)-1,7-naphthyridin-4-amine] |  |  | 0.9 µM |  | 0.0012 µM |  |
| CC1CCCC1Nc1nc(-c2ccncc2)nc2cnccc12 (stereo not drawn) [Example 17, N-(2-methylcyclopentyl)-2-(pyridin-4-yl)pyrido[3,4-d]pyrimidin-4-amine] | 0.606 µM | 0.005 µM |  | 2.63 µM |  | Percentage of p63a-positive cells [6]: 86%; Endothelial Cell density in vitro [7]: 1628 cells/mm^2; Expansion factor [8]: 976; Expansion factor (Fold Cell expansion) [9]: 187 |
| FC(F)(F)[C@H]1CN(c2nc(-c3ccncc3)nc3cnccc23)CCN1 [Example 319, (R)-2-(pyridin-4-yl)-4-(3-(trifluoromethyl)piperazin-1-yl)pyrido[3,4-d]pyrimidine] |  |  | > 10 µM |  | 0.0581 µM |  |
| OCC1(Nc2nc(-c3ccncc3)nc3cnccc23)CCC1 [Example 101, (1-{[2-(pyridin-4-yl)pyrido[3,4-d]pyrimidin-4-yl]amino}cyclobutyl)methanol] | 5.4 µM | 0.005 µM | 3.3 µM | > 20 µM |  | IC50 [4]: 0.03 µM |
| CC(C)(CC(N)=O)Nc1nc(-c2ccncc2)nc2cnccc12 [Example 318, 3-methyl-3-((2-(pyridin-4-yl)pyrido[3,4-d]pyrimidin-4-yl)amino)butanamide] |  |  | 3.1 µM |  | 0.0018 µM |  |
| CC(C)N(C)c1nc(-c2ccncc2)nc2cnccc12 [Example 5, N-methyl-N-(propan-2-yl)-2-(pyridin-4-yl)pyrido[3,4-d]pyrimidin-4-amine] | 2.19 µM | 0.002 µM | 2.3 µM | 2.48 µM |  | Endothelial Cell density in vitro [7]: 3911 cells/mm^2; Expansion factor (Fold Cell expansion) [9]: 408 |
| CC(C)(CN)CNc1nc(-c2ccncc2)nc2cnccc12 [Example 317, 2,2-dimethyl-N^1-(2-(pyridin-4-yl)pyrido[3,4-d]pyrimidin-4-yl)propane-1,3-diamine] |  |  | 3.2 µM |  | 0.0008 µM |  |
| CC(C)(CN)CNc1cc(-c2ccncc2)nc2cnccc12 [Example 301, 2,2-dimethyl-N1-(2-(pyridin-4-yl)-1,7-naphthyridin-4-yl)propane-1,3-diamine] |  |  | > 10 µM |  | 0.0052 µM |  |
| CC(CN)CNc1cc(-c2ccncc2)nc2cnccc12 (stereo not drawn) [Example 304, 2-methyl-N^1-(2-(pyridin-4-yl)-1,7-naphthyridin-4-yl)propane-1,3-diamine] |  |  | > 10 µM |  | 0.0096 µM |  |
| Cc1n[nH]cc1-c1nc(NC(C)(C)CCN(C)C)c2ccncc2n1 [Example 309, N^1,N^1,3-trimethyl-N^3-(2-(3-methyl-1H-pyrazol-4-yl)pyrido[3,4-d]pyrimidin-4-yl)butane-1,3-diamine] |  |  | 2 µM |  | 0.0008 µM |  |
| CN(C)CCC(C)(C)Nc1nc(-c2ccncn2)nc2cnccc12 [Example 308, N^1,N^1,3-trimethyl-N^3-(2-(pyrimidin-4-yl)pyrido[3,4-d]pyrimidin-4-yl)butane-1,3-diamine] |  |  | > 10 µM |  | 0.0687 µM |  |
| CC(C)(N)CNc1cc(-c2ccncc2)nc2cnccc12 [Example 295, 2-methyl-N1-(2-(pyridin-4-yl)-1,7-naphthyridin-4-yl)propane-1,2-diamine] |  |  | > 10 µM |  | 0.01 µM |  |
| NCCNc1nc(-c2ccncc2)nc2cnccc12 [Example 313, N-(2-(pyridin-4-yl)pyrido[3,4-d]pyrimidin-4-yl)ethane-1,2-diamine] |  |  | 7.8 µM |  | 0.0038 µM |  |
| CN(c1cc(-c2ccncc2)nc2cnccc12)C(C)(C)C [Example 306, N-(tert-butyl)-N-methyl-2-(pyridin-4-yl)-1,7-naphthyridin-4-amine] |  |  | 1 µM |  | 0.0012 µM |  |
| CC(Nc1nc(-c2ccncc2)nc2cnccc12)C(F)(F)F (stereo not drawn) [Example 4, 2-(pyridin-4-yl)-N-(1,1,1-trifluoropropan-2-yl)pyrido[3,4-d]pyrimidin-4-amine] | 1.15 µM | 0.001 µM | > 10 µM | 2.53 µM |  | IC50 [4]: 0.001 µM |
